According to US20050271588A1, “Liposome targeting of matrix metalloproteinase inhibitors” (priority 2001, published 2005):
Positions of bridges follow the written chain, without caps; N, C: chain ends. Residues, ends and D or L forms follow the SMILES beside them.

Experiments:
U937 leukemia cells = test: Association of DPPRho-labelled liposomes with cells; type: cell-based; conditions: U937, 5 min
Description: Assays for liposome uptake by cells. In order to study the effects of the different peptides on the cellular uptake of liposomes, rhodamine-labelled phospholipid analog (DPPRho) was incorporated into liposomes as a tracer, to yield a composition POPC/POPE/DPPRho (80:19:1, mol/mol). The indicated peptides were mixed with LUVs and subsequently added to cells cultured in microtiter well plates. After an incubation for 5 min at 38° C. liposomes not bound to the cells were removed by rinsing the cells three times with cold PBS. The relative amount of DPPRho associated with the cells was determined using Tecan Spectrafluor Plus microplate reader (Tecan, Hombrechtigon, Switzerland) with excitation at 535 nm and emission at 595 nm.

U937 cells = test: Cell killing by Adriamycin-containing liposomes, EthD-1 viability assay; type: cell-based; conditions: U937, 24 h, peptide 85 μM, Adriamycin 0.4 μM
Description: Viability assays. Peptide-liposome complexes with the encapsulated adriamycin were made as described above, yielding final concentrations of peptide, lipid, and adriamycin of 85 μM, 0.2 mM, and 0.4 μM, respectively, and were subsequently added to a ten μl (10^5 cells) sample of U937 cells. For the detection of dead cells EthD-1 was used. This fluorophore is membrane-impermeable and emits fluorescence only when bound to DNA (Papadopoulos et al., 1994). Accordingly, EthD-1 readily enters dead cells and binds to their DNA, its fluorescence intensity correlating to the amount of dead cells. EthD-1 emission was measured using microplate reader with excitation at 495 nm and emission at 635 nm. Student's t-test was used to assess statistical significance.

MMP-2 and MMP-9 = conditions: cited from earlier work
[1] = Trp quenching by I- (Stern-Volmer); type: physicochemical; conditions: I- quencher
Description: The extent of exposure of Trp to the aqueous phase was studied using I— as a collisional quencher (Lakowicz, 1999). The extent of quenching was calculated by using the equation: F0/F=1+k[Q]=1+kqτ0[Q] where F0 and F are Trp fluorescence intensities at 345 nm in the absence and presence of the quencher, Q, τ0 is Trp fluorescence lifetime in the absence of the quencher, k is the Stern-Volmer constant (obtained from the slope of the linear fit of the data). Fluorescence of Trp in CTT (5 μM) and its quenching were measured in the absence and presence of POPC/POPE (80:20, mol/mol) LUVs (final lipid concentration of 0.5 mM). The results were corrected for background caused by PBS and liposomes. Assay for lipid mixing. The ability of the CTT, CLP, STT, and CWL peptides to induce liposome fusion was assessed by measuring lipid mixing, as described earlier (Struck et al., 1981). In brief, NBD-PE (X=0.01) and DPPRho (X=0.01) were incorporated into liposomes (POPC/POPE, 78/20, mol/mol). Due to the spectral overlap of NBD-PE (donor) emission and DPPRho (acceptor) absorption resonance energy transfer between these dyes is highly efficient. As liposomes containing NBD-PE and DPPRho are mixed with non-labeled liposomes, fusion is observed as an increase in the emission intensity of NBD-PE due to the dilution of probes. […] All fluorescence measurements were done at 37° C.

[2] = tested on: endothelial and tumor cell migration; conditions: cited from earlier work
[3] = Assay for lipid mixing (liposome fusion, NBD-PE/DPPRho); type: physicochemical; conditions: within 15 min
Description: The extent of exposure of Trp to the aqueous phase was studied using I— as a collisional quencher (Lakowicz, 1999). The extent of quenching was calculated by using the equation: F0/F=1+k[Q]=1+kqτ0[Q] where F0 and F are Trp fluorescence intensities at 345 nm in the absence and presence of the quencher, Q, τ0 is Trp fluorescence lifetime in the absence of the quencher, k is the Stern-Volmer constant (obtained from the slope of the linear fit of the data). Fluorescence of Trp in CTT (5 μM) and its quenching were measured in the absence and presence of POPC/POPE (80:20, mol/mol) LUVs (final lipid concentration of 0.5 mM). The results were corrected for background caused by PBS and liposomes. Assay for lipid mixing. The ability of the CTT, CLP, STT, and CWL peptides to induce liposome fusion was assessed by measuring lipid mixing, as described earlier (Struck et al., 1981). In brief, NBD-PE (X=0.01) and DPPRho (X=0.01) were incorporated into liposomes (POPC/POPE, 78/20, mol/mol). Due to the spectral overlap of NBD-PE (donor) emission and DPPRho (acceptor) absorption resonance energy transfer between these dyes is highly efficient. As liposomes containing NBD-PE and DPPRho are mixed with non-labeled liposomes, fusion is observed as an increase in the emission intensity of NBD-PE due to the dilution of probes. Excitation and emission wavelengths for NBD-PE at 430 nm and 530 nm were used. All fluorescence measurements were done at 37° C.

[4] = Trp fluorescence emission anisotropy with liposomes; type: physicochemical; conditions: 37° C.
Description: Fluorescence polarization of the Trp residue of CTT as a function of increasing concentration of liposomes was measured using rotating polarizers in the excitation and emission beams, with a bandpass of 10 nm. The results are expressed as emission anisotropy (Lakowicz, 1999) calculated as follows: r=(I∥−I⊥)/(I∥+2I⊥). In this equation I⊥ and I∥ represent the emission intensity perpendicular and parallel, respectively, to the excitation polarizer.

MMP-9 = target: T1, MMP-9 (Homo sapiens, UniProt P14780); test: Gelatinase assay with fluorogenic peptide substrate; type: biochemical; conditions: fluorogenic substrate; text says 8 μM 'in both assays'; liposomes 200 μM POPC/POPE
T1 construct: made in house
Description: The activity of MMP-9 was measured also using the fluorogenic peptide substrate MCA-Pro-Leu-Ala-Nva-Dpa-Ala-Arg (Calbiochem, San Diego, Calif., USA). More specifically, 50 ng of MMP-9 was preincubated in PBS for 30 min at RT in the absence or presence of CTT or its liposome complex. Subsequently, the fluorogenic substrate was added to a final concentration of 0.1 mM and the incubation was continued at 37° C. for 15 min, whereafter fluorescence intensities were measured with exitation at 340 nm and emission at 390 nm in a microtiter plate reader.

[5] = Penetration of peptides into lipid monolayers (surface pressure); type: physicochemical; conditions: eggPC monolayer, peptide 200 μM
Description: Interaction of peptides with lipid monolayers. Penetration of peptides into mono-molecular lipid films was measured using magnetically stirred circular wells (subphase volume 400 μl). Surface pressure (π) was monitored with a Wilhelmy wire attached to a microbalance (μ TroughS, Kibron Inc., Helsinki, Finland) connected to a Pentium PC. Lipids were spread on the air-buffer (PBS, pH 7) interface in chloroform (approx. one mg/ml) to different initial surface pressures (π0) and were allowed to equilibrate for 15 min before the addition of the indicated peptides (4 μ1,10 mg/ml in H2O and CWL in DMSO) into the subphase. The increment in π from the initial surface pressures (π0) after the addition of peptide was complete in approximately 20 min and the difference between π0 and the value observed after binding of the peptide into the film was taken as Δπ. All measurements were performed at ambient temperature (˜+24° C.). The data are represented as Δπ vs. […] (Brockman, 1999).

T1 sequence (P14780 94-707): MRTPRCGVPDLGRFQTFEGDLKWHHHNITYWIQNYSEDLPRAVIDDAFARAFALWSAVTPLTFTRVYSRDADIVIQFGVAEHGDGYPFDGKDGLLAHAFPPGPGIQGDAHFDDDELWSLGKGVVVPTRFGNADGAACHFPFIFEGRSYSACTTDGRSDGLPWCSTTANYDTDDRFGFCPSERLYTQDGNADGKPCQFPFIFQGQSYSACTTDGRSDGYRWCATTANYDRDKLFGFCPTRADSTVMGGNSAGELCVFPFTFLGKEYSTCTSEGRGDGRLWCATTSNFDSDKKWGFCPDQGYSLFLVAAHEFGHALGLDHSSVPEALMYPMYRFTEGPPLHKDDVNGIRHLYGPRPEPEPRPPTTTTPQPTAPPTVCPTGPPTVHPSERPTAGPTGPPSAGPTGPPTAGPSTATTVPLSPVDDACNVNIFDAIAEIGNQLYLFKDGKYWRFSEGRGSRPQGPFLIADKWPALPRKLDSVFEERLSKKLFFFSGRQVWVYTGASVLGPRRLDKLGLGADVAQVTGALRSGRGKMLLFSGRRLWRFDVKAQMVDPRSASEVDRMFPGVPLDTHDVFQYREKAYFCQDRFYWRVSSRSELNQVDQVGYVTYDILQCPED

CC(C)C[C@@H]1NC(=O)[C@H]([C@@H](C)O)NC(=O)[C@H](Cc2ccccc2)NC(=O)CNC(=O)[C@H](Cc2c[nH]c3ccccc23)NC(=O)[C@H](Cc2c[nH]cn2)NC(=O)[C@H]([C@@H](C)O)NC(=O)[C@H]([C@@H](C)O)NC(=O)[C@@H](N)CSSC[C@@H](C(=O)O)NC1=O [CTT] (H-CTTHWGFTLC-OH; disulfide 1-10; N-terminus and C-terminus assumed)
Increase of DPPRho marker bound to cells with peptide vs without (U937 leukemia cells): approx. 3.7 fold | Increase in killing of cells vs Adriamycin liposomes without peptide (U937 cells): 4.1 fold | Selective inhibition of MMP family members (MMP-2 and MMP-9): selectively inhibit the activity of MMP-2 and MMP-9 | Stern-Volmer constant ([1]; absence of liposomes): 0.0087 | Stern-Volmer constant ([1]; presence of liposomes): 0.0034 | Endothelial and tumor cell migration in vitro [2]: inhibited | Lipid mixing / vesicle fusion (NBD-PE emission) [3]: lack of lipid mixing | Trp emission anisotropy r ([4]; 230 μM phospholipid, CTT 5 μM): 0.349 | Trp emission anisotropy r ([4]; absence of liposomes, CTT 5 μM in PBS): 0.065 | IC50 (MMP-9): 8 µM | Initial monolayer packing pressure above which membrane penetration was abolished [5]: 38 mN/m
